Measured values published in ChEMBL document CHEMBL2176989, “Design, synthesis, and pharmacological evaluation of piperidin-4-yl amino aryl sulfonamides: novel, potent, selective, orally active, and brain penetrant 5-HT₆ receptor antagonists” (J Med Chem, 2012).
Calls of active or inactive are those of the source. No cut-off for these calls is given here.

Assays:
[1] = Drug metabolism in human liver microsomes at 2.5 uM at 30 mins by LC-MS/MS analysis; format: ADME, Microsome; settings: read-out: Drug metabolism
[2] = target: T1, 5-hydroxytryptamine receptor 2C (Homo sapiens, UniProt P28335); test: Binding affinity to 5HT2C receptor
T1 sequence (P28335 whole entry): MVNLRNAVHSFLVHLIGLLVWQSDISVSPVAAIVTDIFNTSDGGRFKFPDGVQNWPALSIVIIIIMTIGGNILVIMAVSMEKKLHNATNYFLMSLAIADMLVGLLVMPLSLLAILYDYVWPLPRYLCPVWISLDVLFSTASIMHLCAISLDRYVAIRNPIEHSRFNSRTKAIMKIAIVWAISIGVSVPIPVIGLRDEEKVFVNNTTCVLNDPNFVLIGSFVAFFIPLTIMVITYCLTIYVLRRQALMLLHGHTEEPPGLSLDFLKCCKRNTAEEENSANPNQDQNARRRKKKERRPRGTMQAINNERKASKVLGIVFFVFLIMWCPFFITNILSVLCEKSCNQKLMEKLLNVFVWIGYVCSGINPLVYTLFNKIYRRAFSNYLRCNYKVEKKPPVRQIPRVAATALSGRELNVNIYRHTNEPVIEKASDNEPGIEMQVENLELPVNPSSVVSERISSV

[3] = target: 5-hydroxytryptamine receptor 2A (Homo sapiens, UniProt P28223); test: Binding affinity to 5HT2A receptor
[4] = Cmax in fasted beagle dog at 3 mg/kg, po; format: ADME, organism-based, Canis lupus familiaris; parameters: dose 3 mg/kg, route oral; settings: in vivo
[5] = AUC (0 to 24 hrs) in fasted Wistar rat at 5 mg/kg, po; format: ADME, organism-based; parameters: time < 24 hr, dose 5 mg/kg, route oral; settings: plasma
D(2) dopamine receptor = D(2) dopamine receptor (Homo sapiens, UniProt P14416); test: Binding affinity to dopamine D2 receptor
[6] = target: Sodium-dependent dopamine transporter (Homo sapiens, UniProt Q01959); test: Binding affinity to dopamine transporter
[7] = Tmax in fasted beagle dog at 3 mg/kg, po; format: ADME, organism-based, Canis lupus familiaris; parameters: dose 3 mg/kg, route oral; settings: in vivo
[8] = Ratio of drug uptake in brain to plasma in Wistar rat at 10 mg/kg, po after 1 hr; format: ADME, organism-based; parameters: dose 10 mg/kg, route oral; settings: read-out: BPR
[9] = Clearance in beagle dog at 1 mg/kg, iv; format: ADME, organism-based, Canis lupus familiaris; parameters: dose 1 mg/kg, route intravenous; settings: in vivo
Cytochrome P450 2D6 = Cytochrome P450 2D6 (Homo sapiens, UniProt P10635); test: Inhibition of CYP2D6 in human liver microsomes using dextromethorphan as substrate after 10 mins by LC-MS/MS analysis in presence of NADPH
Rattus norvegicus [10] = test: Procognitive activity in Wistar rat assessed as reversal of time delay-induced memory deficit at 0.3 mg/kg, po by object recognition test; format: functional, organism-based; parameters: dose 0.3 mg/kg
[11] = Oral bioavailability in fasted Wistar rat at 5 mg/kg; format: ADME, organism-based; settings: in vivo
[12] = target: 5-hydroxytryptamine receptor 7 (Homo sapiens, UniProt P34969); test: Binding affinity to 5HT7 receptor
[13] = AUC (0 to 24 hrs) in Wistar rat at 5 mg/kg, iv; format: ADME, organism-based; parameters: time < 24 hr, dose 5 mg/kg, route intravenous; settings: plasma
[14] = target: T2, 5-hydroxytryptamine receptor 1A (Homo sapiens, UniProt P08908); test: Binding affinity to 5HT1A receptor
T2 sequence (P08908 whole entry): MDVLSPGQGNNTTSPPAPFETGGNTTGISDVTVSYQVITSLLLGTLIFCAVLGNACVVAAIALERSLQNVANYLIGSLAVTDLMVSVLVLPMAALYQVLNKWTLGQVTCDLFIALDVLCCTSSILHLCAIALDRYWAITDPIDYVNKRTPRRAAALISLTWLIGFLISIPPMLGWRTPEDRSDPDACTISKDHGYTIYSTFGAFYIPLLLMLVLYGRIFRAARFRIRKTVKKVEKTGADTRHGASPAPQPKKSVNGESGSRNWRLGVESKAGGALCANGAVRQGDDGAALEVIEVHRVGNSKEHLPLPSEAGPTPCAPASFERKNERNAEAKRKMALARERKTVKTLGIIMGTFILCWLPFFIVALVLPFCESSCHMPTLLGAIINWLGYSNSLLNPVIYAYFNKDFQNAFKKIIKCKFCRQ

[15] = Cmax in fasted Wistar rat at 5 mg/kg, po; format: ADME, organism-based; parameters: dose 5 mg/kg, route oral; settings: in vivo
[16] = Oral bioavailability in fasted beagle dog at 3 mg/kg; format: ADME, organism-based, Canis lupus familiaris; settings: in vivo
Rattus norvegicus [17] = test: Procognitive activity in Wistar rat assessed as increase in acetylcholine level in medial prefrontal cortex at 10 mg/kg, sc administered as an acute dose measured up to 4 hrs by brain microdialysis method; format: functional, organism-based; parameters: dose 10 mg/kg
[18] = target: Sodium-dependent serotonin transporter (Homo sapiens, UniProt P31645); test: Binding affinity to SERT
[19] = Tmax in fasted Wistar rat at 5 mg/kg, po; format: ADME, organism-based; parameters: dose 5 mg/kg, route oral; settings: in vivo
[20] = AUC (0 to 24 hrs) in beagle dog at 1 mg/kg, iv; format: ADME, organism-based, Canis lupus familiaris; parameters: time < 24 hr, dose 1 mg/kg, route intravenous; settings: plasma
[21] = AUC (0 to 24 hrs) in fasted beagle dog at 3 mg/kg, po; format: ADME, organism-based, Canis lupus familiaris; parameters: time < 24 hr, dose 3 mg/kg, route oral; settings: plasma
[22] = target: 5-hydroxytryptamine receptor 4 (Homo sapiens, UniProt Q13639); test: Binding affinity to 5HT4 receptor
Rattus norvegicus [23] = test: Procognitive activity in sc dosed Wistar rat assessed as increase in acetylcholine level in medial prefrontal cortex administered as an acute dose measured up to 4 hrs by brain microdialysis method; format: functional, organism-based
[24] = target: 5-hydroxytryptamine receptor 6 (Homo sapiens) (UniProt P50406); test: Antagonist activity at human recombinant 5HT6 receptor expressed in CHO cells assessed as inhibition of 5HT-induced luciferase activity after 4 hrs by reporter gene assay; format: functional, cell-based
[25] = target: 5-hydroxytryptamine receptor 6 (Homo sapiens) (UniProt P50406); test: Antagonist activity at human recombinant 5HT6 receptor expressed in CHO cells assessed as inhibition of 5HT-induced luciferase activity after 4 hrs by reporter gene assay relative to control; format: functional, cell-based
[26] = Half life in Wistar rat at 5 mg/kg, iv; format: ADME, organism-based; parameters: dose 5 mg/kg, route intravenous; settings: in vivo
[27] = Clearance in Wistar rat at 5 mg/kg, iv; format: ADME, organism-based; parameters: dose 5 mg/kg, route intravenous; settings: in vivo
[28] = target: T3, Alpha-1B adrenergic receptor (Homo sapiens, UniProt P35368); test: Binding affinity to adrenergic alpha1B receptor
T3 sequence (P35368 whole entry): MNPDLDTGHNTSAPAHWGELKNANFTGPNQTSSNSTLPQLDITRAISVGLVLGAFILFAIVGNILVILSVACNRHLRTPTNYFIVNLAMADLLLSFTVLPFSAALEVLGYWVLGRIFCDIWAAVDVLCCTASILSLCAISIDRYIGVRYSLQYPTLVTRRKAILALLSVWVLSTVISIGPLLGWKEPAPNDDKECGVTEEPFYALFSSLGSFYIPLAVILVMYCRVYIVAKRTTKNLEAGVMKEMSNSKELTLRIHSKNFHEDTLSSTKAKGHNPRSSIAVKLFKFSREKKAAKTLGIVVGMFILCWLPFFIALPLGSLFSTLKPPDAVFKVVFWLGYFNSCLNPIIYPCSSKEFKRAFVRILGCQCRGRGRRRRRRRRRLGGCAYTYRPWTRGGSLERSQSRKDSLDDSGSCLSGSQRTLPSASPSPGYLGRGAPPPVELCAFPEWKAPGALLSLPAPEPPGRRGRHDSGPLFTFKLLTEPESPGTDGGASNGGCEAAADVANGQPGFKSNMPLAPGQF

[29] = Drug metabolism in Wistar rat liver microsomes at 2.5 uM at 30 mins by LC-MS/MS analysis; format: ADME, Microsome; settings: read-out: Drug metabolism

Sequence of 5-hydroxytryptamine receptor 6 (Homo sapiens) (P50406 whole entry): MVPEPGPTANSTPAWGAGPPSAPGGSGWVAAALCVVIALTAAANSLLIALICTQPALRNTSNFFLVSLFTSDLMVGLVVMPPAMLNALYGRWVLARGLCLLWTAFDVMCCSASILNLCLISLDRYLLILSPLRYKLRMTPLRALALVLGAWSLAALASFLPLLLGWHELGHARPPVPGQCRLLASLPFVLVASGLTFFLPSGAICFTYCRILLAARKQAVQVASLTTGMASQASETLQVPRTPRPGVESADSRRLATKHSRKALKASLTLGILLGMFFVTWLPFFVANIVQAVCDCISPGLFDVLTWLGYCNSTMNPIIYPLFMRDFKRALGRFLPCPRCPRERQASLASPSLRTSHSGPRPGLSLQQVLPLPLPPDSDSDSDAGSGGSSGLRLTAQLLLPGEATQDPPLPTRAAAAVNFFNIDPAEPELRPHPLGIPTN
Sequence of 5-hydroxytryptamine receptor 7 (P34969 whole entry): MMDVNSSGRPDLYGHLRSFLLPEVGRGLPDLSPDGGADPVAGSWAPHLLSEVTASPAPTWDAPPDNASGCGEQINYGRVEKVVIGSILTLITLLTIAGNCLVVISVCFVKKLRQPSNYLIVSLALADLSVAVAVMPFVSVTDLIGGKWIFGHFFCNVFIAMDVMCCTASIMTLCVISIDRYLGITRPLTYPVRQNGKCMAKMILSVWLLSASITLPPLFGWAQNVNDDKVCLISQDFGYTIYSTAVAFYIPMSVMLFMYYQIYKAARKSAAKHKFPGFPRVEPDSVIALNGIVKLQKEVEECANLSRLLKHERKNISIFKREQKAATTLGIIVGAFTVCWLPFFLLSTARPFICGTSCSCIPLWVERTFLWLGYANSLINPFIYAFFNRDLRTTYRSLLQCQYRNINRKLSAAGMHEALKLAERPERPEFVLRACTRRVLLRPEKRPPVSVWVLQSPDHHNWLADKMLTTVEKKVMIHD
Sequence of 5-hydroxytryptamine receptor 2A (P28223 whole entry): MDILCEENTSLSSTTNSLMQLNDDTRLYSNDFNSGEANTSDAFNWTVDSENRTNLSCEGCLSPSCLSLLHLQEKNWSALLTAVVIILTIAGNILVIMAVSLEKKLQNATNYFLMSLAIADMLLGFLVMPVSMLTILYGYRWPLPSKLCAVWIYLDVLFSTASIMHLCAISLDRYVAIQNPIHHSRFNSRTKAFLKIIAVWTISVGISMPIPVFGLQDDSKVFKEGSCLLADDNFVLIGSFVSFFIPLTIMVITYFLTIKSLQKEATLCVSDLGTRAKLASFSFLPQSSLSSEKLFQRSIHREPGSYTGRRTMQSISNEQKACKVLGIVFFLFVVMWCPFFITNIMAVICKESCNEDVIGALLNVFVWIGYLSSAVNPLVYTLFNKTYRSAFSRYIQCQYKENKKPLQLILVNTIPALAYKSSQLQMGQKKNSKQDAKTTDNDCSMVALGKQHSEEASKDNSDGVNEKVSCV
Sequence of D(2) dopamine receptor (P14416 whole entry): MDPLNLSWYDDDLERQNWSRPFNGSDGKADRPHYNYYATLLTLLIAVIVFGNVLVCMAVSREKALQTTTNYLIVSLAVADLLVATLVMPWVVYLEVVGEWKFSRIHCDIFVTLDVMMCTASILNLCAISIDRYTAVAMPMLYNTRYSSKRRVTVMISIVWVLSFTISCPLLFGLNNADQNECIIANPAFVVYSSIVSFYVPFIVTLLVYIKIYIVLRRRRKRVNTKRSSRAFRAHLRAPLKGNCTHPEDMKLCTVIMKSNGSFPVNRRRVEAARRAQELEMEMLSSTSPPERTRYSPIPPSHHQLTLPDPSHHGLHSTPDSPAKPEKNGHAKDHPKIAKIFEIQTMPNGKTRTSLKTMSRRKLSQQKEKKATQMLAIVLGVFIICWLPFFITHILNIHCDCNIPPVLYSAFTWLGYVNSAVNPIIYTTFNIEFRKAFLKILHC
Sequence of Cytochrome P450 2D6 (P10635 whole entry): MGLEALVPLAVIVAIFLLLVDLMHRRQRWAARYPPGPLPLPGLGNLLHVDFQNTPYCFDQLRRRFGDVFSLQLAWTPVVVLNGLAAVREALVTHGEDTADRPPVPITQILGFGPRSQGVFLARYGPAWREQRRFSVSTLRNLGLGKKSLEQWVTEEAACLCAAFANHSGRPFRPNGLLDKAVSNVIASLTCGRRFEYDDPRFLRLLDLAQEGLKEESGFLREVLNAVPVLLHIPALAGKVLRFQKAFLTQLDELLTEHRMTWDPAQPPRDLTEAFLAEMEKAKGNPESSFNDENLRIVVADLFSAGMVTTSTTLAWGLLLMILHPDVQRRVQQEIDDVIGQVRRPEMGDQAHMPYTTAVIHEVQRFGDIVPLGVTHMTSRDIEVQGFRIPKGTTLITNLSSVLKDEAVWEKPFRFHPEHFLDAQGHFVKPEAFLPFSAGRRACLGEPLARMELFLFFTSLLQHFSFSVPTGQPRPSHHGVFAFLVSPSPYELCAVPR
Sequence of 5-hydroxytryptamine receptor 4 (Q13639 whole entry): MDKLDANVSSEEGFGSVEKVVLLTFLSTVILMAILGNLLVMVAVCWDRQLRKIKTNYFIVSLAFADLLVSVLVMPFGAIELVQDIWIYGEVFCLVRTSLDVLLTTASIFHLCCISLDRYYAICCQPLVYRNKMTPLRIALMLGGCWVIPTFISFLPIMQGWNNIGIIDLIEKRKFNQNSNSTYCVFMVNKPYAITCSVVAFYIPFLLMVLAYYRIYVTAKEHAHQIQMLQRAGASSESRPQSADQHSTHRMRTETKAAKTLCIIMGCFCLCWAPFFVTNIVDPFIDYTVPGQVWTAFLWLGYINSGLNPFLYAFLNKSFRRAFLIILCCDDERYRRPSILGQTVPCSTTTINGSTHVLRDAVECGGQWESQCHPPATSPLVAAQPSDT
Sequence of Sodium-dependent dopamine transporter (Q01959 whole entry): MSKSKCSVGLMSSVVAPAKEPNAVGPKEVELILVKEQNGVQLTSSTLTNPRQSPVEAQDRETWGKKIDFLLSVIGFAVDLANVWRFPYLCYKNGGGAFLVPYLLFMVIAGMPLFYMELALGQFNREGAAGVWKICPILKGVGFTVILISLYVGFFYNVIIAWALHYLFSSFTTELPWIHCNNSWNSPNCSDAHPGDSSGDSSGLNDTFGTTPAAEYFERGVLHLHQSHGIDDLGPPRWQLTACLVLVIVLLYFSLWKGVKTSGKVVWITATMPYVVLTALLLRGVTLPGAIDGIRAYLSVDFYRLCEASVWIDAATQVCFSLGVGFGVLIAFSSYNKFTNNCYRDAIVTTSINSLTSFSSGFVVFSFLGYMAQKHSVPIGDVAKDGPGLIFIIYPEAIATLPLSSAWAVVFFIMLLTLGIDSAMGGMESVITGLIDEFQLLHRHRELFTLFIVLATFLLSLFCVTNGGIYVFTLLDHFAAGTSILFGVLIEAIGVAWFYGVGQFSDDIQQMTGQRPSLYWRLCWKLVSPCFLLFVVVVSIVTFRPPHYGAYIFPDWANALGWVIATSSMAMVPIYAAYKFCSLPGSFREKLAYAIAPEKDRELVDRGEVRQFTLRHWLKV
Sequence of Sodium-dependent serotonin transporter (P31645 whole entry): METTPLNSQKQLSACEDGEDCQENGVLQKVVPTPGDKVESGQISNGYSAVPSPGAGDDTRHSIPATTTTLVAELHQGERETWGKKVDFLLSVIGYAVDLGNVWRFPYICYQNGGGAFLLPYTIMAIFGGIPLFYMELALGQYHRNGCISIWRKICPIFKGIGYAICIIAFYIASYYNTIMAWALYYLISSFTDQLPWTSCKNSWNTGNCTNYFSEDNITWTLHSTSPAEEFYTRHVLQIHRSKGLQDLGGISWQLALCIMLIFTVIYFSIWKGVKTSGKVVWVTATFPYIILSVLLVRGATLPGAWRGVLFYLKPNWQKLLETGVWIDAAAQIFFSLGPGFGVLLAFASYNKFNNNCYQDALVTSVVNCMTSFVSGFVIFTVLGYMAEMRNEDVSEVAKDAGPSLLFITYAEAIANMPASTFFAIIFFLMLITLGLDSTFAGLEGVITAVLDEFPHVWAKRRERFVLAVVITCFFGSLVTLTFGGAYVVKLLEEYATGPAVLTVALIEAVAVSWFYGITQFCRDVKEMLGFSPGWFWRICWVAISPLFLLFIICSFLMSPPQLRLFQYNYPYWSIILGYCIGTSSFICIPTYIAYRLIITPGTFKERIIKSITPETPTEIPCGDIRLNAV

metabolised at 0.5 h, 2.5 µM [1]: 72%
Ki [2]: 2.24 µM
Ki [3]: 2.37 µM
Cmax [4]: 549 ng/mL
AUC(0-t) at 24 h [5]: 389 ng·h/mL
Ki (D(2) dopamine receptor): 1.81 µM
Ki [6]: 3.22 µM
Tmax [7]: 1.7 h
Kp at 1 h [8]: 0.9
clearance [9]: 12 mL/min/kg
IC50 (Cytochrome P450 2D6): > 45 µM
bioavailability [11]: 29%
Ki [12]: 1.96 µM
AUC(0-t) at 24 h [13]: 1310 ng·h/mL
EC50 [14]: > 10 µM
Cmax [15]: 156 ng/mL
bioavailability [16]: 92%
Ki [18]: > 10 µM
Tmax [19]: 1 h
AUC(0-t) at 24 h [20]: 1400 ng·h/mL
AUC(0-t) at 24 h [21]: 3630 ng·h/mL
EC50 [22]: > 10 µM
Kb [24]: 40 pM
Imax [25]: 100%
half-life [26]: 1.7 h
clearance [27]: 64 mL/min/kg
Ki [28]: 3.79 µM
metabolised at 0.5 h, 2.5 µM [29]: 76%
Structure (SMILES): COc1ccc(S(=O)(=O)n2cc(C)c3cc(Cl)cnc32)cc1NC1CCN(C)CC1
Activity (Rattus norvegicus [10]): Active
Activity (Rattus norvegicus [17]): Active
Activity (Rattus norvegicus [23]): Dose-dependent effect
